Reference: PubChem BioAssay (NCI)
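GI50: concentration for 50% inhibition of growth. The concentration for full growth arrest is given as TGI.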

Key:
Assay in all cases: NCI-60 cell line screen, 384-well format
[1] = system: MALME-3M melanoma
[2] = system: NCI/ADR-RES ovarian
[3] = system: A498 renal
[4] = system: SNB-19 CNS
[5] = system: UACC-257 melanoma
[6] = system: TK-10 renal
[7] = system: NCI-H226 lung
[8] = system: SK-MEL-28 melanoma
[9] = system: HOP-92 NSCLC
[10] = system: OVCAR-4 ovarian
[11] = system: RPMI-8226 leukemia
[12] = system: HOP-62 NSCLC
[13] = system: HCC-2998 colon
[14] = system: K-562 leukemia
[15] = system: SK-MEL-5 melanoma
[16] = system: A549 NSCLC
[17] = system: NCI-H522 lung
[18] = system: EKVX NSCLC
[19] = system: CCRF-CEM leukemia
[20] = system: RXF 393 renal
[21] = system: SR leukemia
[22] = system: NCI-H23 lung
[23] = system: MCF7 breast
[24] = system: HCT-15 colon
[25] = system: NCI-H460 NSCLC
[26] = system: UACC-62 melanoma
[27] = system: COLO 205 colon
[28] = system: HCT-116 colon
[29] = system: KM12 colon
[30] = system: SF-539 CNS
[31] = system: NCI-H322M lung
[32] = system: DU-145 prostate
[33] = system: HL-60(TB) leukemia
[34] = system: IGROV1 ovarian
[35] = system: MDA-MB-468 breast
[36] = system: PC-3 prostate
[37] = system: OVCAR-8 ovarian
[38] = system: SW-620 colon
[39] = system: SK-MEL-2 melanoma
[40] = system: T-47D breast
[41] = system: HS 578T breast
[42] = system: ACHN renal
[43] = system: M14 melanoma
[44] = system: OVCAR-3 ovarian
[45] = system: MOLT-4 leukemia
[46] = system: CAKI-1 renal
[47] = system: HT29 colon
[48] = system: SK-OV-3 ovarian
[49] = system: MDA-MB-231 breast
[50] = system: SN12C renal
[51] = system: SF-295 CNS
[52] = system: OVCAR-5 ovarian
[53] = system: U251 glioblastoma
[54] = system: 786-0 renal
[55] = system: SNB-75 CNS
[56] = system: SF-268 CNS
[57] = system: MDA-MB-435 melanoma
[58] = system: BT-549 breast

CCn1c(=O)c(-c2ccn[nH]2)cc2c(C)nc(N)nc21
GI50 [1]: 456 nM | TGI [1]: 2030 nM | GI50 [2]: 1580 nM | TGI [2]: 8000 nM | GI50 [3]: 384 nM | TGI [3]: 1970 nM | GI50 [4]: 18100 nM | TGI [4]: > 100000 nM | GI50 [5]: 3780 nM | TGI [5]: 39400 nM | GI50 [6]: 790 nM | TGI [6]: 3500 nM | GI50 [7]: 1330 nM | TGI [7]: 5510 nM | GI50 [8]: 1140 nM | TGI [8]: 7220 nM | GI50 [9]: 201 nM | TGI [9]: 1310 nM | GI50 [10]: 1390 nM | TGI [10]: 11200 nM | GI50 [11]: 232 nM | TGI [11]: 646 nM | GI50 [12]: 1930 nM | TGI [12]: 11600 nM | GI50 [13]: 2190 nM | TGI [13]: 13900 nM | GI50 [14]: 6580 nM | TGI [14]: > 100000 nM | GI50 [15]: 1160 nM | TGI [15]: 4000 nM | GI50 [16]: 2270 nM | TGI [16]: 9940 nM | GI50 [17]: 671 nM | TGI [17]: 4230 nM | GI50 [18]: 911 nM | TGI [18]: 4520 nM | GI50 [19]: 434 nM | TGI [19]: 2540 nM | GI50 [20]: 399 nM | TGI [20]: 1900 nM | GI50 [21]: 1750 nM | TGI [21]: 5000 nM | GI50 [22]: 1430 nM | TGI [22]: > 30200 nM | GI50 [23]: 511 nM | TGI [23]: > 100000 nM | GI50 [24]: 2360 nM | TGI [24]: > 100000 nM | GI50 [25]: 883 nM | TGI [25]: 10800 nM | GI50 [26]: 1560 nM | TGI [26]: 10700 nM | GI50 [27]: 2240 nM | TGI [27]: 7350 nM | GI50 [28]: 5310 nM | TGI [28]: > 100000 nM | GI50 [29]: 3390 nM | TGI [29]: 38600 nM | GI50 [30]: 2970 nM | TGI [30]: 21500 nM | GI50 [31]: 2180 nM | TGI [31]: 10300 nM | GI50 [32]: 3380 nM | TGI [32]: > 100000 nM | GI50 [33]: 840 nM | TGI [33]: 7000 nM | GI50 [34]: 333 nM | TGI [34]: 1210 nM | GI50 [35]: 358 nM | TGI [35]: 1570 nM | GI50 [36]: 369 nM | TGI [36]: 2570 nM | GI50 [37]: 2750 nM | TGI [37]: > 60400 nM | GI50 [38]: 3240 nM | TGI [38]: 25700 nM | GI50 [39]: 3220 nM | TGI [39]: 9870 nM | GI50 [40]: 394 nM | TGI [40]: 2040 nM | GI50 [41]: 310 nM | TGI [41]: 1660 nM | GI50 [42]: 2000 nM | TGI [42]: 8330 nM | GI50 [43]: 2200 nM | TGI [43]: > 27400 nM | GI50 [44]: 853 nM | TGI [44]: 4460 nM | GI50 [45]: 587 nM | TGI [45]: 2160 nM | GI50 [46]: 663 nM | TGI [46]: 3780 nM | GI50 [47]: 2420 nM | TGI [47]: > 69500 nM | GI50 [48]: 562 nM | TGI [48]: 2930 nM | GI50 [49]: 955 nM | TGI [49]: > 23800 nM | GI50 [50]: 1220 nM | TGI [50]: > 34500 nM | GI50 [51]: 1580 nM | TGI [51]: 8640 nM | GI50 [52]: 1010 nM | TGI [52]: 6830 nM | GI50 [53]: 5620 nM | TGI [53]: 97900 nM | GI50 [54]: 2910 nM | TGI [54]: 15700 nM | GI50 [55]: 477 nM | TGI [55]: 2400 nM | GI50 [56]: 1890 nM | TGI [56]: 15600 nM | GI50 [57]: 2710 nM | TGI [57]: 19700 nM | GI50 [58]: 330 nM | TGI [58]: 2760 nM
